How the values were obtained:
Assay type in all cases: cell-based
Klebsiella pneumonia = assay: MIC against Gram-negative bacteria: Klebsiella pneumonia; conditions: 5×10^5 CFU/mL; for MIC K. pneumonia: 10 h cultivation at 37° C., two-fold serial dilution; for MIC (μg/mL) K. pneumonia: Klebsiella pneumonia
Method in brief: (§1)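 LB broth cultures at McFarland 0.5, spun down, resuspended, diluted to 5×10^5 CFU/mL final. Two-fold serial dilutions of purified human EGF domain proteins, triplicate. 37° C, 175 rpm shaking. Endpoint: no visible growth.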

Proteus mirabilis = assay: MIC against Gram-negative bacteria: Proteus mirabilis; conditions: 5×10^5 CFU/mL; for MIC P. mirabilis: 10 h cultivation at 37° C., two-fold serial dilution; for MIC (μg/mL) P. mirabilis: Proteus mirabilis
Method in brief: as §1

Citrobacter diversus = assay: MIC against Gram-negative bacteria: Citrobacter diversus; conditions: 5×10^5 CFU/mL; for MIC C. diversus: 10 h cultivation at 37° C., two-fold serial dilution; for MIC (μg/mL) C. diversus: Citrobacter diversus
Method in brief: as §1

E. coli DH5α = assay: Antibacterial activity: MIC and growth curve against E. coli DH5α in 96-well plate; conditions: minimal inhibitory concentration against E. coli DH5α; 96-well plate, 5×10^5 CFU/mL, 37° C., judged after 8 h
Method in brief: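 Log-phase DH5α (OD600 about 0.5, 37° C, 185 rpm in LB) was pelleted, resuspended in fresh LB and seeded at 5×10^5 CFU/mL with recombinant protein at 50, 25 and 12.5 μg/mL (two-fold series), in triplicate. Plates were shaken at 175 rpm, 37° C, and OD600 was read every 30 min. MIC was the lowest concentration with no growth.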

Proteus vulgaris = assay: MIC against Gram-negative bacteria: Proteus vulgaris; conditions: 5×10^5 CFU/mL; for MIC P. vulgaris: 10 h cultivation at 37° C., two-fold serial dilution; for MIC (μg/mL) P. vulgaris: Proteus vulgaris
Method in brief: as §1

Serratia marcescens = assay: MIC against Gram-negative bacteria: Serratia marcescens; conditions: 5×10^5 CFU/mL; for MIC S. marcescens: 10 h cultivation at 37° C., two-fold serial dilution; for MIC (μg/mL) S. marcescens: Serratia marcescens
Method in brief: as §1

E. coli BL21 = assay: MIC against Gram-negative bacteria: E. coli BL21; conditions: 5×10^5 CFU/mL; for MIC E. coli BL21: 10 h cultivation at 37° C., two-fold serial dilution
Method in brief: as §1

Pseudomonas aeruginosa = assay: MIC against Gram-negative bacteria: Pseudomonas aeruginosa; conditions: 5×10^5 CFU/mL; for MIC P. aeruginosa: 10 h cultivation at 37° C., two-fold serial dilution; for MIC (μg/mL) P. aeruginosa: Pseudomonas aeruginosa
Method in brief: as §1

Enterobacter cloacae = assay: MIC against Gram-negative bacteria: Enterobacter cloacae; conditions: 5×10^5 CFU/mL; for MIC E. cloacae: 10 h cultivation at 37° C., two-fold serial dilution; for MIC (μg/mL) E. cloacae: Enterobacter cloacae
Method in brief: as §1

Aeromonas hydrophila = assay: MIC against Gram-negative bacteria: Aeromonas hydrophila; conditions: 5×10^5 CFU/mL; for MIC A. hydrophila: 10 h cultivation at 37° C., two-fold serial dilution; for MIC (μg/mL) A. hydrophila: Aeromonas hydrophila
Method in brief: as §1

Moraxella catarrhalis = assay: MIC against Gram-negative bacteria: Moraxella catarrhalis; conditions: 5×10^5 CFU/mL; for MIC M. catarrhalis: 10 h cultivation at 37° C., two-fold serial dilution; for MIC (μg/mL) M. catarrhalis: Moraxella catarrhalis
Method in brief: as §1

Substance	MIC K. pneumonia (Klebsiella pneumonia) [µg/mL]	MIC P. mirabilis (Proteus mirabilis) [µg/mL]	MIC C. diversus (Citrobacter diversus) [µg/mL]	MIC (E. coli DH5α) [µg/mL]	MIC P. vulgaris (Proteus vulgaris) [µg/mL]	MIC S. marcescens (Serratia marcescens) [µg/mL]	MIC E. coli BL21 (E. coli BL21) [µg/mL]	MIC P. aeruginosa (Pseudomonas aeruginosa) [µg/mL]	MIC E. cloacae (Enterobacter cloacae) [µg/mL]	MIC A. hydrophila (Aeromonas hydrophila) [µg/mL]	MIC M. catarrhalis (Moraxella catarrhalis) [µg/mL]	MIC (μg/mL) K. pneumonia (Klebsiella pneumonia; 96-well plate, 37° C., 10 h) [µg/mL]	MIC (μg/mL) P. mirabilis (Proteus mirabilis; 96-well plate, 37° C., 10 h) [µg/mL]	MIC (μg/mL) C. diversus (Citrobacter diversus; 96-well plate, 37° C., 10 h) [µg/mL]	MIC (μg/mL) P. vulgaris (Proteus vulgaris; 96-well plate, 37° C., 10 h) [µg/mL]	MIC (μg/mL) S. marcescens (Serratia marcescens; 96-well plate, 37° C., 10 h) [µg/mL]	MIC (μg/mL) E. coli BL21 (E. coli BL21; 96-well plate, 37° C., 10 h) [µg/mL]	MIC (μg/mL) P. aeruginosa (Pseudomonas aeruginosa; 96-well plate, 37° C., 10 h) [µg/mL]	MIC (μg/mL) E. cloacae (Enterobacter cloacae; 96-well plate, 37° C., 10 h) [µg/mL]	MIC (μg/mL) A. hydrophila (Aeromonas hydrophila; 96-well plate, 37° C., 10 h) [µg/mL]	also measured
PRT1143 (NLDECLSEPCLHDGVCIDGINHYTCDCKSGFFGTHCE; listed as Homo sapiens)	25	12.5	12.5	12.5	50	12.5	25	50	12.5	50	50	–	–	–	–	–	–	–	–	–	–
PRT112 (DINECTDFVDVPCSHFCNNFIGGYFCSCPPEYFLHDDMKNCG; listed as Homo sapiens)	–	–	–	50	–	–	–	–	–	–	–	12.5	50	12.5	12.5	50	12.5	50	12.5	12.5	MIC (μg/mL) M. catarrhalis (Moraxella catarrhalis; 96-well plate, 37° C., 10 h): 12.5 µg/mL
PRT1144 (NANDCLSNPCLHGRCTELINEYPCSCDADGTSTQCK; listed as Homo sapiens)	12.5	25	25	50	12.5	25	12.5	50	50	12.5	50	–	–	–	–	–	–	–	–	–	–
PRT461 (DVDECAWDAHLCREGQRCVNLLGSYRCLPDCGPGFRVADGAGCE; listed as Homo sapiens)	–	–	–	50	–	–	–	–	–	–	–	–	–	–	–	–	–	–	–	–	MIC against K. pneumonia (Klebsiella pneumonia; 96-well plate, 37° C., 10 h): 12.5 µg/mL; MIC against P. mirabilis (Proteus mirabilis; 96-well plate, 37° C., 10 h): 12.5 µg/mL; MIC against C. diversus (Citrobacter diversus; 96-well plate, 37° C., 10 h): 50 µg/mL; MIC against P. vulgaris (Proteus vulgaris; 96-well plate, 37° C., 10 h): 25 µg/mL; MIC against S. marcescens (Serratia marcescens; 96-well plate, 37° C., 10 h): 12.5 µg/mL; MIC against E. coli BL21 (E. coli BL21; 96-well plate, 37° C., 10 h): 12.5 µg/mL; MIC against P. aeruginosa (Pseudomonas aeruginosa; 96-well plate, 37° C., 10 h): 50 µg/mL; MIC against E. cloacae (Enterobacter cloacae; 96-well plate, 37° C., 10 h): 50 µg/mL; MIC against A. hydrophila (Aeromonas hydrophila; 96-well plate, 37° C., 10 h): 12.5 µg/mL; MIC against M. catarrhalis (Moraxella catarrhalis; 96-well plate, 37° C., 10 h): 25 µg/mL
PRT111 (DLDECASRSKSGEEDPQPQCQHLCHNYVGGYFCSCRPGYELQEDTHSCQ; listed as Homo sapiens)	–	–	–	12.5	–	–	–	–	–	–	–	12.5	50	12.5	25	12.5	12.5	12.5	50	25	MIC (μg/mL) M. catarrhalis (Moraxella catarrhalis; 96-well plate, 37° C., 10 h): 25 µg/mL

From patent US9833497B2, “Human originated EGF domain proteins and use of the same” (CHENGDU SOURCEBIO LIMITED-LIABILITY COMPANY, priority 2013, dated 2017)
